US11203591B2, “Substituted 6-azabenzimidazole compounds” (Gilead Sciences, Inc., priority 2018, dated 2021)
pIC50: −log10 of the molar value.

Target: human HPK1 (MAP4K1) (Homo sapiens (Human), UniProt Q92918)
Experiment: HPK1 IC50 Assay (TR-FRET peptide phosphorylation)
Format: biochemical
Settings: 0.15 nM HPK1, 10 μM ATP, 1 μM STK S1 peptide substrate; geometric mean
Procedure, shortened: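 Pre-activated, dually phosphorylated baculovirus-expressed HPK1 kinase domain (0.15 nM) preincubated 15 min with compound, then reacted 3 h at 25° C with 10 μM ATP and 1 μM STK S1 peptide in BES pH 7.0 buffer. Phosphopeptide read by TR-FRET (665/620 nm); four-parameter fit, geometric-mean IC50.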

Chain of human HPK1 (MAP4K1) (Q92918 17-274): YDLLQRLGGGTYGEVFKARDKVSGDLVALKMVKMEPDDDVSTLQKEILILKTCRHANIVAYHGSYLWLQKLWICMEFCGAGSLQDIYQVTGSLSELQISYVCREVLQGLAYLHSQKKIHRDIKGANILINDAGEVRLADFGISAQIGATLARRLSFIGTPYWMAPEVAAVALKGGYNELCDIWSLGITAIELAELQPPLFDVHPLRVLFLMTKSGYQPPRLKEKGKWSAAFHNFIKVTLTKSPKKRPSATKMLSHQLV

pIC50 | SMILES
10.00 | CCNC(=O)c1cc(Nc2nc(-c3cnc4c(c3)N([C@H]3C[C@@](C)(N5CCCCC5)C3)C(=O)C4(C)C)cc3ncn(C(C)C)c23)c(F)c(F)c1Cl [Example 286, 2-chloro-5-((6-(3,3-dimethyl-1-((1s,3s)-3-methyl-3-(piperidin-1-yl)cyclobutyl)-2-oxo-2,3-dihydro-1H-pyrrolo[3,2-b]pyridin-6-yl)-3-isopropyl-3H-imidazo[4,5-c]pyridin-4-yl)amino)-N-ethyl-3,4-difluorobenzamide]

Same assay, conditions: recombinant HPK1 kinase domain 0.15 nM, 10 μM ATP, 1 μM STK S1 peptide; geometric mean of multiple experiments

SMILES | pIC50
CNC(=O)c1cc(Nc2nc(-c3ccc4c(c3)N([C@H]3C[C@@H](N5CCC[C@@H](F)C5)C3)C(=O)C43CCN(C4COC4)CC3)cc3ncn(C(C)C)c23)c(F)cc1C [Example 170, 4-fluoro-5-((6-(1-((1S,3s)-3-((R)-3-fluoropiperidin-1-yl)cyclobutyl)-1′-(oxetan-3-yl)-2-oxospiro[indoline-3,4′-piperidin]-6-yl)-3-isopropyl-3H-imidazo[4,5-c]pyridin-4-yl)amino)-N,2-dimethylbenzamide] | 9.10
CNC(=O)c1cc(Nc2nc(-c3ccc4c(c3)N([C@H]3C[C@@H](N5C[C@H]6CC[C@@H]5C6)C3)C(=O)C43CCN(C(C)=O)CC3)cc3ncn(C4CC4)c23)ccc1C [Example 44] | 9.70
CC(=O)N1CCC2(CC1)C(=O)N([C@H]1C[C@@H](N3CC4CCC(C3)O4)C1)c1cc(-c3cc4ncn(C(C)C)c4c(Nc4cc(C(=O)NC(C)C)c(C)cc4F)n3)ccc12 [Example 78] | 9.70
Cc1ccc(Nc2nc(-c3ccc4c(c3)N([C@H]3C[C@@H](N5CCCCC5)C3)C(=O)C43CCN(C4COC4)CC3)cc3ncn(C(C)C)c23)cc1C(=O)NC(C)C [Example 73] | 10.00
CNC(=O)c1cc(Nc2nc(-c3ccc4c(c3)N([C@H]3C[C@@H](N5CCCCC5)C3)C(=O)C43CCN(C(=O)C4(O)CC4)CC3)cc3ncn(C4CC4)c23)ccc1C [Example 84] | 9.70
CNC(=O)c1cc(Nc2nc(-c3ccc4c(c3)N([C@H]3C[C@@H](NC5CCC(F)(F)CC5)C3)C(=O)C4(C)C)cc3ncn(C(C)C)c23)ccc1C [Example 80] | 10.00
CC(C)n1cnc2cc(-c3cnc4c(c3)N([C@H]3C[C@@](C)(N5CCCCC5)C3)C(=O)C4(C)C)nc(Nc3cc(C(=O)NC4(C(F)F)CC4)c(Cl)cc3F)c21 [Example 202, 2-Chloro-N-(1-(difluoromethyl)cyclopropyl)-5-((6-(3,3-dimethyl-1-((1s,3s)-3-methyl-3-(piperidin-1-yl)cyclobutyl)-2-oxo-2,3-dihydro-1H-pyrrolo[3,2-b]pyridin-6-yl)-3-isopropyl-3H-imidazo[4,5-c]pyridin-4-yl)amino)-4-fluorobenzamide] | 10.00

Continued, values first:

pIC50 | SMILES
10.00 | Cc1c(C(=O)NC2(C(F)F)CC2)cc(Nc2nc(-c3cnc4c(c3)N([C@H]3C[C@@](C)(N5CCC[C@@H](F)C5)C3)C(=O)C4(C)C)cc3ncn(C(C)C)c23)c(F)c1F [Example 196, N-(1-(Difluoromethyl)cyclopropyl)-3,4-difluoro-5-((6-(1-((1S,3s)-3-((R)-3-fluoropiperidin-1-yl)-3-methylcyclobutyl)-3,3-dimethyl-2-oxo-2,3-dihydro-1H-pyrrolo[3,2-b]pyridin-6-yl)-3-isopropyl-3H-imidazo[4,5-c]pyridin-4-yl)amino)-2-methylbenzamide]
10.00 | CNC(=O)c1cc(Nc2nc(-c3ccc4c(c3)N([C@H]3C[C@@H](N5CCCCC5)C3)C(=O)C43CCOCC3)cc3ncn(C4CC4)c23)ccc1C [Example 127]
10.00 | Cc1ccc(Nc2nc(-c3ccc4c(c3)N([C@H]3C[C@@H](N5CCCCC5)C3)C(=O)C4(C)C)cc3ncn(C(C)C)c23)cc1C(=O)NCC(C)(F)F [Example 28]
10.30 | CC(C)n1cnc2cc(-c3cnc4c(c3)N([C@H]3C[C@@](C)(N5CCCCCC5)C3)C(=O)C4(C)C)nc(Nc3cc(C(=O)NCC(F)F)c(Cl)c(F)c3F)c21 [Example 248, 5-((6-(1-((1s,3s)-3-(azepan-1-yl)-3-methylcyclobutyl)-3,3-dimethyl-2-oxo-2,3-dihydro-1H-pyrrolo[3,2-b]pyridin-6-yl)-3-isopropyl-3H-imidazo[4,5-c]pyridin-4-yl)amino)-2-chloro-N-(2,2-difluoroethyl)-3,4-difluorobenzamide]
